Results as given in patent EP4656640A1, “IRAK4 DEGRADER AND USE THEREOF” (Shanghai Qilu Pharmaceutical Research and Development …, priority 2023, dated 2024).

Experiments:
[1] = Dog pharmacokinetics, oral gavage (Experiment 3); format: in vivo; settings: Beagle dogs, oral gavage 2.5 mg/kg, plasma
Description: Healthy Beagle dogs, male, weighing about 8-10 kg, 3 animals per group.
The animals were not fasted and had free access to water.
Venous blood (0.5-0.8 mL) was collected at 15 minutes, 30 minutes, 1 hour, 2 hours, 4 hours, 8 hours, and 24 hours after oral gavage administration, placed in K2EDTA tubes, and centrifuged at 4°C to separate plasma. The concentration of the compound in plasma was determined by liquid chromatography-tandem mass spectrometry.
The main pharmacokinetic parameters were calculated using WinNonlin. […] Table 8. Pharmacokinetic parameters of some compounds of the present disclosure administered orally to dogs

[2] = molecular target: T1, IRAK4 (Homo sapiens, UniProt Q9NWZ3); assay: Degradation of IRAK4 in monocytes of human PBMCs (flow cytometry); format: cell-based; design: endogenous in cells; settings: human PBMC monocytes, 24 hours incubation
T1 sequence (Q9NWZ3 1-460): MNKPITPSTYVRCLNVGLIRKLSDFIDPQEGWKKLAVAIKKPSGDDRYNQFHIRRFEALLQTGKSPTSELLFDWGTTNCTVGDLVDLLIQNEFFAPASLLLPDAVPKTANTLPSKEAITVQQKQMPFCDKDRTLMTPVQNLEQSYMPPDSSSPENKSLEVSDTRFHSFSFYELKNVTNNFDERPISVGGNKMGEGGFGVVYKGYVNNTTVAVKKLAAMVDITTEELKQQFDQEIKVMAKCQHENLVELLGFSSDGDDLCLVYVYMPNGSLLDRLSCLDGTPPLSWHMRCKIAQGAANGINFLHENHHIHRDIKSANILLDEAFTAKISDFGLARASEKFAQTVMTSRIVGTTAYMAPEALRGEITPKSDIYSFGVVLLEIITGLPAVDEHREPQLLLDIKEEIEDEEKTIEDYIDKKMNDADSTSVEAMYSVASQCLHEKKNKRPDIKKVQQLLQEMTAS
Description: The degradation level of IRAK4 in monocytes of human peripheral blood mononuclear cells (hPBMCs) was detected by flow cytometry.
On day 1, the cells were seeded at a density of 2 × 10^5 cells per well in 100 µL in a 96-well plate.
The compounds were dissolved in DMSO to a final concentration of 10 mM, and then diluted with culture medium at a 1:5 concentration gradient to prepare 10 concentrations. The diluted solutions were added to the cells to obtain a maximum final concentration of 2 µM. Wells containing cells treated with 0.1% DMSO served as the positive control
The cells were incubated at 37°C in a 5% CO2 incubator for 24 hours.
The cells were stained for viability discrimination using the LIVE/DEAD™ Fixable Blue Dead Cell Stain Kit, and surface staining of monocytes was performed with PE Mouse Anti-Human CD14, followed by incubation at 4°C for 30 minutes.
Fix buffer I, equal in volume to the cultured cells, was added, and the cells were fixed at 37°C for 10 minutes.
150 µL of Perm III reagent was added, and the cells were incubated at 4°C for 30 minutes to permeabilize the membranes.
Flow cytometry analysis was performed using a flow cytometer.
The flow cytometry data were analyzed using Flowjo software. Data presentation and DC50 calculation were performed using Prism 8.0.2 (GraphPad).

[3] = molecular target: hERG potassium channel (Homo sapiens, UniProt Q12809); assay: Inhibition of hERG potassium channel, whole-cell manual patch clamp in CHO-hERG cells; settings: @ 1 µM test compound
Description: The effects of compounds on hERG potassium channel (human Ether-a-go-go Related Gene potassium channel) currents were tested using the whole-cell manual voltage-clamp electrophysiological method.
CHO cells stably expressing hERG were cultured in cell culture dishes with a diameter of 35 mm and incubated at 37°C in a 5% CO2 incubator. The cells were passaged at a ratio of 1:5 every 48 hours. The culture medium was formulated as follows: 90% F12 (Invitrogen), 10% fetal bovine serum (Gibco), 100 g/mL G418 (Invitrogen), and 100 g/mL Hygromycin B (Invitrogen). On the day of the experiment, the cell culture medium was aspirated, and the cells were rinsed once with extracellular solution. […] The digestion solution was aspirated, and the cells were resuspended in extracellular solution and then transferred to experimental dishes for electrophysiological recording for later use.
On the day of testing, the compounds were prepared as 10 mM stock solutions in DMSO, then diluted to 1 mM with DMSO, and further diluted 1000-fold with extracellular solution to obtain the desired final test concentration.
hERG potassium channel currents were recorded at room temperature using the whole-cell patch-clamp technique in CHO cells stably expressing the hERG channel. The glass microelectrode was prepared by pulling the glass electrode blank (BF150-86-10, Sutter) with a puller, and the tip resistance after filling with the internal electrode solution was about 2-5 MΩ. The glass microelectrode was inserted into the amplifier probe and then connected to the patch-clamp amplifier. The clamping voltage and data recording were controlled and recorded by pClamp software via a computer, with a sampling frequency of 10 kHz and a filtering frequency of 2 kHz. After obtaining the whole-cell recording, cells were clamped at -100 mV. The hERG potassium current (IhERG) was evoked by applying a 2 s depolarizing voltage step from -100 mV to +20 mV, followed by repolarization to -50 mV for 1 s before returning to -100 mV. […]
Data were analyzed and processed using pClamp, GraphPad Prism 8 and Excel software. […]

[4] = molecular target: T1, IRAK4; assay: Degradation of IRAK4 in SU-DHL-2 cells (flow cytometry); format: cell-based; design: The degradation level of IRAK4 protein in SU-DHL-2 cell line by the compounds was detected by flow cytometry; endogenous in cells; host or cells: SU-DHL-2; OCI-LY3; settings: SU-DHL-2 cells, 24 hours incubation; read-out: SU-DHL-2 DC50

Sequence of hERG potassium channel (Q12809 whole entry): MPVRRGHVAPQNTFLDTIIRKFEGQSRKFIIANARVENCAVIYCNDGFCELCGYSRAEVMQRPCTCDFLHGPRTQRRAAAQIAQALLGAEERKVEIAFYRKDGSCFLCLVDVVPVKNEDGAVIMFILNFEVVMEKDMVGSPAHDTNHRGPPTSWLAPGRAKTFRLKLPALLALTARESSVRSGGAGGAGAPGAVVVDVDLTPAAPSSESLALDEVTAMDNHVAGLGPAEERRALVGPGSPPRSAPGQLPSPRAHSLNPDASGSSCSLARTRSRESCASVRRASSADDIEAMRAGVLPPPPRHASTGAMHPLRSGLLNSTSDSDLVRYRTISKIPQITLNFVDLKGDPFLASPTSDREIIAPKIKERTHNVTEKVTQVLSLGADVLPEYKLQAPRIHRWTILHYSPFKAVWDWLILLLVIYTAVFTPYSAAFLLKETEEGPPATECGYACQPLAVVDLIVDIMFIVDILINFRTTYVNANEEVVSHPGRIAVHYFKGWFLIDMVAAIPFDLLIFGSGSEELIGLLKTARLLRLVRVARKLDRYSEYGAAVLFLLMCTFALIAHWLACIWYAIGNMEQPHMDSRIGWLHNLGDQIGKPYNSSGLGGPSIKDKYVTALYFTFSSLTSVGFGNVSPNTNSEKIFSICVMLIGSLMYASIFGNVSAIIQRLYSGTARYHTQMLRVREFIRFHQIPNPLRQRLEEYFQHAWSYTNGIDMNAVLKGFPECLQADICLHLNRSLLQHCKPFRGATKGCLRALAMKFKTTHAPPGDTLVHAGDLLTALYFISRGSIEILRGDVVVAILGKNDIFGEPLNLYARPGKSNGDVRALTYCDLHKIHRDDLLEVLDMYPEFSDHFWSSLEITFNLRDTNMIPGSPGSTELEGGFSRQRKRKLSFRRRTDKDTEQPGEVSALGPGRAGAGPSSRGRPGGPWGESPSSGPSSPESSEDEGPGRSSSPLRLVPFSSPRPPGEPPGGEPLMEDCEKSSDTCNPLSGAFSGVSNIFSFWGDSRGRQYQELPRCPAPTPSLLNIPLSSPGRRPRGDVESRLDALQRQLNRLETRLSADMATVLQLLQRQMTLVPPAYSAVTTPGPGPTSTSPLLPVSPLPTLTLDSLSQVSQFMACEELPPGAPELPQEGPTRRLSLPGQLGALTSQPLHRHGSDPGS

Cn1c(=O)n(C2CCC(=O)NC2=O)c2cccc(C#CCCN3CCC4(CC3)CC(n3cc(NC(=O)c5cnn6ccc(N7C[C@H]8C[C@@H]7CO8)nc56)c(C(F)F)n3)C4)c21 (some centres unmarked) [Example 22]
AUC(0-t) at 24 h [1]: 1190 ng·h/mL
Cmax [1]: 100 ng/mL
MRT inf [1]: 11.2 h
half-life [1]: 7.6 h
DC50 [2]: 0.13 nM
hERG (inhibition%) [3]: 36% @ 1 µM
DC50 [4]: 1.4 nM

Cn1c(=O)n(C2CCC(=O)NC2=O)c2cccc(C#CCOC34CCC(CN5CCC6(CC5)CC(n5cc(NC(=O)c7cnn8ccc(N9C[C@H]%10C[C@@H]9CO%10)nc78)c(C(F)F)n5)C6)(CC3)CC4)c21 (some centres unmarked) [Example 52]
AUC(0-t) at 24 h [1]: 1160 ng·h/mL
Cmax [1]: 78 ng/mL
MRT inf [1]: 20.2 h
half-life [1]: 13.4 h
DC50 [2]: 0.65 nM
hERG (inhibition%) [3]: 16% @ 1 µM
DC50 [4]: 3 nM
